As usually defined, the IC50 is the point on the concentration scale where inhibition reaches its midpoint. A low value points to higher potency.

In US20140128599A1, “BENZOXAZOLE KINASE INHIBITORS AND METHODS OF USE” (Intellikine LLC La Jolla, priority 2008, published 2014) one finds IC50 data, which are given here for 22 molecules.

What all share (type): biochemical
The target of one assay is T1, mTOR (Homo sapiens, UniProt P42345).
T1 construct: purchased Invitrogen
The assay can be described thus: mTOR kinase inhibition assay.

For another assay, the target named is T2, PI3K β (Homo sapiens, UniProt P42338).
T2 construct: purchased Upstate
Briefly: PI3K kinase inhibition assay (p110β/p85α).

In the next assay the target is T3, PI3K δ (Homo sapiens, UniProt O00329).
T3 construct: purchased Upstate
The assay can be described thus: PI3K kinase inhibition assay (p110δ/p85α).

A further assay concerns the target T4, PI3K α (Homo sapiens, UniProt P42336).
T4 construct: purchased Upstate
Briefly: PI3K kinase inhibition assay (p110α/p85α).

A further assay addresses T5, PI3K γ (Homo sapiens, UniProt P48736).
T5 construct: purchased Sigma
The assay can be described thus: PI3K kinase inhibition assay (p110γ).

T5 sequence (P48736 whole entry): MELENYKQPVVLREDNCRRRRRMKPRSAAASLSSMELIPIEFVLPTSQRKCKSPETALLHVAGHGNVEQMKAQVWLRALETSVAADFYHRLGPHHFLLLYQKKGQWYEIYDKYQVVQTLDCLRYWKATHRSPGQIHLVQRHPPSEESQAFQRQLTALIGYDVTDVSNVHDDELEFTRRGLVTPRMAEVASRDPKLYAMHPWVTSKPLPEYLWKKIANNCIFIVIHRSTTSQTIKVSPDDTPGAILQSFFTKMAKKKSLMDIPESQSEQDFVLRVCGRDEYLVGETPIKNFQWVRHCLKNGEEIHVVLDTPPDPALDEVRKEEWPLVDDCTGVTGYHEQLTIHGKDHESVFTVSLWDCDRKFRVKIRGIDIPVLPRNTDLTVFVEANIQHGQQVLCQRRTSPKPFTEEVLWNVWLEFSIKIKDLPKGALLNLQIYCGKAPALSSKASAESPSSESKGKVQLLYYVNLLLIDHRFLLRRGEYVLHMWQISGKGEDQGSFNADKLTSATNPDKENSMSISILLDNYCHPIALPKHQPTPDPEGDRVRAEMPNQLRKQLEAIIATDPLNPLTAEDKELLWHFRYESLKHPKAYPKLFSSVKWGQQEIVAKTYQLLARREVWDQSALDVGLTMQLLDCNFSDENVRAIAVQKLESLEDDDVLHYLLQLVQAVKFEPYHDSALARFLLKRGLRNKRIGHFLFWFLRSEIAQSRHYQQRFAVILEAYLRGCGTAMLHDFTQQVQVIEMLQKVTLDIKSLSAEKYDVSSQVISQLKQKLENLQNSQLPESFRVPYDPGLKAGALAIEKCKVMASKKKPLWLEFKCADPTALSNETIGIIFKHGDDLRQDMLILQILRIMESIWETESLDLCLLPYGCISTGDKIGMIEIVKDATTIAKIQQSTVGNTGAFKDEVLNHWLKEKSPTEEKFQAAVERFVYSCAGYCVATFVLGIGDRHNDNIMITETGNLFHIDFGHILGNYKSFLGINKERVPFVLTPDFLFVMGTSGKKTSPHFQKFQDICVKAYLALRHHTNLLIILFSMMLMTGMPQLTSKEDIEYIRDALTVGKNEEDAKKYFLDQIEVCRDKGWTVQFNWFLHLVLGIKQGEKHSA
T2 sequence (P42338 whole entry): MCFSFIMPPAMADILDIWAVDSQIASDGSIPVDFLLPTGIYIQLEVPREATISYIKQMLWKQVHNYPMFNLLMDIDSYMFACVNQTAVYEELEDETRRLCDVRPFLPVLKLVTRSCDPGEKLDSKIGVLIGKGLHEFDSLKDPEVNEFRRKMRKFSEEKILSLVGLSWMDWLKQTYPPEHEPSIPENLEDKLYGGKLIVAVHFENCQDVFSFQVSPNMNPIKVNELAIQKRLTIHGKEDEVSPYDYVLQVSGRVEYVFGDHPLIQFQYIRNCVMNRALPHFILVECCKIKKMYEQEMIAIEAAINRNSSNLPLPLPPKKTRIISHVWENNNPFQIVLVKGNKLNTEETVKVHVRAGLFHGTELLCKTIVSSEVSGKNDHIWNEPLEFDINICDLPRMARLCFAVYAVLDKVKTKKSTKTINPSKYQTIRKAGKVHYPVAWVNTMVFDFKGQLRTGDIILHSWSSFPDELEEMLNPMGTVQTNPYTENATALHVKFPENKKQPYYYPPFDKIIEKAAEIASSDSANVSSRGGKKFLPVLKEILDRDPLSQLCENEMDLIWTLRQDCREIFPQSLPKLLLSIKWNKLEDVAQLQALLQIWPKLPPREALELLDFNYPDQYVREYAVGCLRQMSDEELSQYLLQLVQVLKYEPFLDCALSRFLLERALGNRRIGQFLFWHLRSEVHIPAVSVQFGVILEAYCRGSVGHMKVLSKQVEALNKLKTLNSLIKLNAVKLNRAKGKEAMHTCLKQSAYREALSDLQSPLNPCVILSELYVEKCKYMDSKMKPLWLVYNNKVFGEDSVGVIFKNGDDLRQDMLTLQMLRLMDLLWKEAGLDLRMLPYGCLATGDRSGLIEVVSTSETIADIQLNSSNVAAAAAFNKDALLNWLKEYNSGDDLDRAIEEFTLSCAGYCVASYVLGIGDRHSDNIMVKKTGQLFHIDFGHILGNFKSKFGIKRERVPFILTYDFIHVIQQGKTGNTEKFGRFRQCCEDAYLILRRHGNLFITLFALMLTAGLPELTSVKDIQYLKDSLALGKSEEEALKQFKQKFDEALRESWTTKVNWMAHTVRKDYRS
T2 sequence (P27986 whole entry partner): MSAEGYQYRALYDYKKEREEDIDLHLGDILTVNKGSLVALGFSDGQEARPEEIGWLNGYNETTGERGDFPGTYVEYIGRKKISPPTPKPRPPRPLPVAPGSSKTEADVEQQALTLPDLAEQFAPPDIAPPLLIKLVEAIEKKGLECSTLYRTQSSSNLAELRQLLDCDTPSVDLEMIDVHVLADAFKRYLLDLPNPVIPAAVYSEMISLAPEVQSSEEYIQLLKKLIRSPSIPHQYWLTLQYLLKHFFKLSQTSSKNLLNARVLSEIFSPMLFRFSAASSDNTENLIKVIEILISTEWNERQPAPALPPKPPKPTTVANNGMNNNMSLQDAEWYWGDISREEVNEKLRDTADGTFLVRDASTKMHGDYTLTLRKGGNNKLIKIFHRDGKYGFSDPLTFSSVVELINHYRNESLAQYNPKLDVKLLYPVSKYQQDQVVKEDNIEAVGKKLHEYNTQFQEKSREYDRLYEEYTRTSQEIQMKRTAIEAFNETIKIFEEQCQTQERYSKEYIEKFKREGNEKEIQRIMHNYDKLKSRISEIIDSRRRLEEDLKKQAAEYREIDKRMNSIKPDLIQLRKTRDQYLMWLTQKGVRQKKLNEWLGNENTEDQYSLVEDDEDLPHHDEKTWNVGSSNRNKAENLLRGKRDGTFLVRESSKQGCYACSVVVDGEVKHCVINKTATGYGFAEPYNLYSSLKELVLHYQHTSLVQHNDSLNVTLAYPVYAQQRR
T3 sequence (O00329 whole entry): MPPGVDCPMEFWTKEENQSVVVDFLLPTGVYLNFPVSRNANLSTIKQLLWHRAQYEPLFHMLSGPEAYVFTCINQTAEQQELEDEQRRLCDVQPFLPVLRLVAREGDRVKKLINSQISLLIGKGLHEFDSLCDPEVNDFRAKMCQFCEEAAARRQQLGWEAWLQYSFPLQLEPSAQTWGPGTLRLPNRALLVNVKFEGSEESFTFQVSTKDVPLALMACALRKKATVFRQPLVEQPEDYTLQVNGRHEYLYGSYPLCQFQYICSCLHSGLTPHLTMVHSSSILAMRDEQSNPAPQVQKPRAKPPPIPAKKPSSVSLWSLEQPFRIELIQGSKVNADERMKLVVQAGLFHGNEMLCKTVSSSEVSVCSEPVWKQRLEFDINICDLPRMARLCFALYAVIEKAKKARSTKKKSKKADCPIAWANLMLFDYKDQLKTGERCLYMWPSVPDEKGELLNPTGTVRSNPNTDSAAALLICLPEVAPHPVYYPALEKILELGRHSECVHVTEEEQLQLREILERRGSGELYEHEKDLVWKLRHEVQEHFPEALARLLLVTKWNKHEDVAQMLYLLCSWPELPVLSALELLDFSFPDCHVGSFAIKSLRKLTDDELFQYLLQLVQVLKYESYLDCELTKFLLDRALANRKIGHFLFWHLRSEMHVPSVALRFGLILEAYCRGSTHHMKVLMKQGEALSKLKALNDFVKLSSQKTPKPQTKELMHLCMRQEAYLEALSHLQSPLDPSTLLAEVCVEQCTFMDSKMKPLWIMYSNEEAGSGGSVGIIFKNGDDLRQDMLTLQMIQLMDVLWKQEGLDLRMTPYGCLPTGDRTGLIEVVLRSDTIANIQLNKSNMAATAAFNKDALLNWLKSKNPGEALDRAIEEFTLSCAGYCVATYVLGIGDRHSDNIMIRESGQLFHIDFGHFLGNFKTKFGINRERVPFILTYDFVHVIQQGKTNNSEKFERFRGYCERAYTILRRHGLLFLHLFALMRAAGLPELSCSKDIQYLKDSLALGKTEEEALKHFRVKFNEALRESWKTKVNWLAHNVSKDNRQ
T3 sequence (P27986 whole entry partner): as the sequence (P27986 whole entry partner) above
T4 sequence (P42336 whole entry): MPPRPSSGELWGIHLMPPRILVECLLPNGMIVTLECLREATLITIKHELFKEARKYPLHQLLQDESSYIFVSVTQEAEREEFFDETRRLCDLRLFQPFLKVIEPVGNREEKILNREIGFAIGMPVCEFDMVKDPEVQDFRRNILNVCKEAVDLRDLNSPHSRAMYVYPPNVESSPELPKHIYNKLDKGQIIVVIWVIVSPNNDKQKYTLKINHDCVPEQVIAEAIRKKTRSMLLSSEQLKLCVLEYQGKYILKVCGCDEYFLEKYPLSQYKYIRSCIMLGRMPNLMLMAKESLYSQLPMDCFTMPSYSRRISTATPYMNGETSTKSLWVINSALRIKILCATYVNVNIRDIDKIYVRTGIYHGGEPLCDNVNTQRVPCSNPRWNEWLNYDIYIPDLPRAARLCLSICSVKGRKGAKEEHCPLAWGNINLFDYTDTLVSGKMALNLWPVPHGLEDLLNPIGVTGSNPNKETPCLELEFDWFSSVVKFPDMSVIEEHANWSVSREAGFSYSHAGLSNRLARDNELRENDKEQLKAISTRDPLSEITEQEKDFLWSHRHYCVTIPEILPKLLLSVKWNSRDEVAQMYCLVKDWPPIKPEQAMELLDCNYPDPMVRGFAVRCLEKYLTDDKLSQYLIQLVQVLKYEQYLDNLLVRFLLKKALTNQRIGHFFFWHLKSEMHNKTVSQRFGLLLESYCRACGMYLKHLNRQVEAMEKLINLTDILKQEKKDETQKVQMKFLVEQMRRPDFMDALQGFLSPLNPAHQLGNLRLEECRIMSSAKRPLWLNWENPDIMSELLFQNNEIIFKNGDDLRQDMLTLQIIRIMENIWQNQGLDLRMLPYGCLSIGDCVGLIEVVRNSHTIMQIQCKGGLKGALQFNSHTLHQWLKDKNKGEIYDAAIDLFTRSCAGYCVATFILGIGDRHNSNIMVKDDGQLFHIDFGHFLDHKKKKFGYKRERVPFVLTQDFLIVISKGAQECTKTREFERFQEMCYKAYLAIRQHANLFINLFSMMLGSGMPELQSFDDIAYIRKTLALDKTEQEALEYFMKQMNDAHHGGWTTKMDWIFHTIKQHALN
T4 sequence (P27986 whole entry partner): as the sequence (P27986 whole entry partner) above
Description for PI3K γ: IC50 values are measured using either a standard TLC assay for lipid kinase activity (described below) or a high-throughput membrane capture assay. Kinase reactions are performed by preparing a reaction mixture containing kinase, inhibitor (2% DMSO final concentration), buffer (25 mM HEPES, pH 7.4, 10 mM MgCl2), and freshly sonicated phosphatidylinositol (100 μg/ml). Reactions are initiated by the addition of ATP containing 10 μCi of γ-32P-ATP to a final concentration 10 or 100 μM and allowed to proceed for 5 minutes at room temperature. For TLC analysis, reactions are then terminated by the addition of 105 μl 1N HCl followed by 160 μl CHCl3:MeOH (1:1). The biphasic mixture is vortexed, briefly centrifuged, and the organic phase is transferred to a new tube using a gel loading pipette tip precoated with CHCl3. […] The TLC plates are then dried, exposed to a phosphorimager screen (Storm, Amersham), and quantitated.
Briefly, the assay is a time resolved FRET assay that indirectly measures PIP3 product formed by the activity of a PI3-K. The kinase reaction is performed in a microtitre plate (e.g., a 384 well microtitre plate). The total reaction volume is approximately 20 ul per well. In the first step, each well receives 2 ul of test compound in 20% dimethylsulphoxide resulting in a 2% DMSO final concentration. Next, approximately 14.5 ul of a kinase/PIP2 mixture (diluted in 1× reaction buffer) is added per well for a final concentration of 0.25-0.3 ug/ml kinase and 10 uM PIP2. The plate is sealed and incubated for 15 minutes at room temperature. To start the reaction, 3.5 ul of ATP (diluted in 1× reaction buffer) is added per well for a final concentration of 10 uM ATP. The plate is sealed and incubated for 1 hour at room temperature. The reaction is stopped by adding 5 ul of Stop Solution per well and then 5 ul of Detection Mix is added per well. The plate is sealed, incubated for 1 hour at room temperature, and then read on an appropriate plate reader. Data is analyzed and IC50s are generated using GraphPad Prism 5.
Description for mTOR: The compounds described herein can be tested against recombinant mTOR (Invitrogen) in an assay containing 50 mM HEPES, pH 7.5, 1 mM EGTA, 10 mM MgCl2, 2.5 mM, 0.01% Tween, 10 μM ATP (2.5 μCi of μ-32P-ATP), and 3 μg/mL BSA. Rat recombinant PHAS-1/4EBP1 (Calbiochem; 2 mg/mL) is used as a substrate. Reactions are terminated by spotting onto nitrocellulose, which is washed with 1M NaCl/1% phosphoric acid (approximately 6 times, 5-10 minutes each). Sheets are dried and the transferred radioactivity quantitated by phosphorimaging.
This assay is a time resolved FRET platform that measures the phosphorylation of GFP labeled 4EBP1 by mTOR kinase. The kinase reaction is performed in a white 384 well microtitre plate. The total reaction volume is 20 ul per well and the reaction buffer composition is 50 mM HEPES pH7.5, 0.01% Polysorbate 20, 1 mM EGTA, 10 mM MnCl2, and 2 mM DTT. In the first step, each well receives 2 ul of test compound in 20% dimethylsulphoxide resulting in a 2% DMSO final concentration. Next, 8 ul of mTOR diluted in reaction buffer is added per well for a 60 ng/ml final concentration. To start the reaction, 10 ul of an ATP/GFP-4EBP1 mixture (diluted in reaction buffer) is added per well for a final concentration of 10 uM ATP and 0.5 uM GFP-4EBP1. The plate is sealed and incubated for 1 hour at room temperature. […] The plate is sealed, incubated for 1 hour at room temperature, and then read on a plate reader set up for LanthaScreen™ TR-FRET. Data is analyzed and IC50s are generated using GraphPad Prism 5.

On mTOR, `CC(C)n1nc(-c2ccc3onc(N)c3c2)c2c(N)ncnc21` [compound 10] gave an IC50 of less than 10 µM.

As for `COC(=O)Nc1noc2ccc(-c3nn(C(C)C)c4ncnc(N)c34)cc12` [compound 19], the IC50 against mTOR is less than 10 µM; on PI3K β, more than 10 µM; at PI3K δ it was more than 10 µM.

As for `CC(C)(CO)n1nc(-c2ccc3oc(N)nc3c2)c2c(N)ncnc21` [compound 27], the IC50 was less than 10 µM against PI3K α, more than 10 µM at PI3K β, more than 10 µM at PI3K γ and less than 1 µM against PI3K δ.

Regarding `CNc1noc2cc(-c3nn(C(C)C)c4ncnc(N)c34)ccc12` [compound 13], the IC50 against mTOR was less than 10 µM; on PI3K α it was less than 10 µM; at PI3K γ it was less than 1 µM; against PI3K δ, less than 1 µM.

`CC(C)n1nc(-c2ccc3onc(NC4CC4)c3c2)c2c(N)ncnc21` [compound 16]: the IC50 against mTOR, on PI3K α and at PI3K δ was more than 10 µM in each case.

For `CC(C)n1nc(-c2ccc3c(N)noc3c2)c2c(N)ncnc21` [compound 12], the IC50 against mTOR is less than 1 µM.

In the case of `Nc1nc2cc(-c3nn(C4CC(O)C4)c4ncnc(N)c34)ccc2o1` (stereo not drawn) [compound 26], the IC50 against PI3K α and against PI3K γ was less than 0.1 µM throughout.

Take `COC(=O)Nc1noc2cc(-c3nn(C(C)C)c4ncnc(N)c34)ccc12` [compound 20]: the figures for the IC50 against mTOR, against PI3K β and at PI3K δ were less than 10 µM, more than 10 µM and less than 10 µM, respectively.

`Nc1nc2cc(-c3nn(C4CC(=O)C4)c4ncnc(N)c34)ccc2o1` [compound 25]: the IC50 against PI3K α is less than 1 µM; against PI3K β, less than 10 µM; against PI3K γ, less than 0.1 µM; on PI3K δ it was less than 1 µM.

For `CC(C)n1cc(-c2ccc3oc(N)nc3c2)c2c(N)ncnc21` [compound 8], the IC50 is less than 0.1 µM at mTOR; less than 1 µM against PI3K α; more than 10 µM against PI3K β; less than 1 µM at PI3K γ; less than 1 µM against PI3K δ.

For the molecule `Nc1nc2cc(-c3nn(C4CCC(N5CCOCC5)CC4)c4ncnc(N)c34)ccc2o1` (stereo not drawn) [compound 6], the IC50 is more than 10 µM against PI3K β and less than 1 µM against PI3K δ.

As to `CC(=O)N1CCC(n2nc(-c3ccc4oc(N)nc4c3)c3c(N)ncnc32)CC1` [compound 7], the IC50 against PI3K α was less than 1 µM; on PI3K β it was less than 10 µM; on PI3K γ it was less than 10 µM; against PI3K δ, less than 1 µM.

Consider `Nc1nc2cc(-c3nn(C4CCOCC4)c4ncnc(N)c34)ccc2o1` [compound 5], for which the IC50 was less than 0.1 µM against mTOR; less than 1 µM against PI3K α; less than 10 µM against PI3K β; less than 0.1 µM against PI3K γ; less than 1 µM against PI3K δ.

Consider `CC(=O)Nc1nc2cc(-c3nn(C(C)C)c4ncnc(N)c34)ccc2o1` [compound 2], for which the IC50 was less than 0.1 µM against mTOR; less than 10 µM against PI3K α; more than 10 µM at PI3K β; less than 1 µM against PI3K γ; less than 1 µM against PI3K δ.

Turning to `CC(=O)Nc1noc2cc(-c3nn(C(C)C)c4ncnc(N)c34)ccc12` [compound 11], the IC50 on mTOR is less than 1 µM.

As for `Cc1nc(N)c2c(-c3ccc4oc(N)nc4c3)nn(C(C)C)c2n1` [compound 21], the IC50 against mTOR is less than 1 µM; against PI3K α, more than 10 µM; against PI3K β it was more than 10 µM; against PI3K γ, more than 10 µM; at PI3K δ, more than 10 µM.

`Nc1noc2ccc(-c3nn(CC(=O)N4CCOCC4)c4ncnc(N)c34)cc12` [compound 17]: the IC50 on mTOR, on PI3K α, against PI3K γ and on PI3K δ was more than 10 µM in each case.

Consider `CC(C)n1nc(-c2ccc3nc(N)oc3c2)c2c(N)ncnc21` [compound 4], for which the IC50 against mTOR is less than 1 µM; on PI3K α it was less than 10 µM; against PI3K β it was less than 10 µM; at PI3K γ, less than 1 µM; against PI3K δ, less than 1 µM.

Consider `CC(CO)n1nc(-c2ccc3oc(N)nc3c2)c2c(N)ncnc21` (stereo not drawn) [compound 23], for which the IC50 at mTOR is less than 0.1 µM; on PI3K α, less than 10 µM; against PI3K β, more than 10 µM; against PI3K γ, less than 10 µM; on PI3K δ, less than 10 µM.

In the case of `CC(C)n1nc(-c2ccc3c(NC4CC4)noc3c2)c2c(N)ncnc21` [compound 14], the IC50 at mTOR, on PI3K α and against PI3K δ was less than 10 µM throughout.

Molecule `CC(=O)Nc1nc2ccc(-c3nn(C(C)C)c4ncnc(N)c34)cc2o1` [compound 3] showed an IC50 against PI3K α of more than 10 µM.

With `Nc1nc2cc(-c3cn(C4CCOCC4)c4ncnc(N)c34)ccc2o1` [compound 9], the values for the IC50 against PI3K α and against PI3K β were less than 10 µM and more than 10 µM, respectively.
